The values below come from article PMC6687522 (Drug development research, 2019).

The target of the test is T1, human neutrophil elastase (HNE) (Homo sapiens, UniProt P08246).
T1 sequence (P08246 30-267): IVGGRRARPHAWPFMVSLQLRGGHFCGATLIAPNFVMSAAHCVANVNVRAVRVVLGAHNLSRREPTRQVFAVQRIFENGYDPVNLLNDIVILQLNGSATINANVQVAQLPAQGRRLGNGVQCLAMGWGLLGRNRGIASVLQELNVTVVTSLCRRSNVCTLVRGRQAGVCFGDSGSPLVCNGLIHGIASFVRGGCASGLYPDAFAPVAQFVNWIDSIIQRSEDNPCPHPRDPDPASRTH
Nature of the test: HNE inhibition assay. It counts as biochemical.

The IC50 is the concentration that gives 50% inhibition. Low values mean greater potency in that assay, high ones weaker potency in that assay. `Cc1cccc(C(=O)n2c(C#N)cc3cccnc32)c1` [Compound 2d, 1-(3-Methylbenzoyl)-1H-pyrrolo[2,3-b]pyridine-2-carbonitrile] had an IC50 of 3.5 ± 1.2 µM.

For the compound `Cc1cccc(C(=O)n2c(C)c(C#N)c3cccnc32)c1` [Compound 2e, 2-Methyl-1-(3-methylbenzoyl)-1H-pyrrolo[2,3-b]pyridine-3-carbonitrile], the midpoint of inhibition, the IC50, lay at 10.8 ± 2.2 µM. This IC50 lies about 3.1-fold higher than the previous one.

`Cc1cccc(C(=O)n2cc(C#N)c3cc(Br)cnc32)c1` [Compound 7a, 5-Bromo-1-(3-methylbenzoyl)-1H-pyrrolo[2,3-b]pyridine-3-carbonitrile]: the IC50 is 0.051 ± 0.014 µM. The “fold more potent than the 5-chloro derivative 7b” value (ratio of HNE IC50 values) is “about 3 fold”.

In the case of `Cc1cccc(C(=O)n2cc(C#N)c3cc(Cl)cnc32)c1` [Compound 7b, 5-Chloro-1-(3-methylbenzoyl)-1H-pyrrolo[2,3-b]pyridine-3-carbonitrile], the IC50 came out at 0.16 ± 0.05 µM.

Compound `Cc1cccc(C(=O)n2cc(C#N)c3cc([N+](=O)[O-])cnc32)c1` [Compound 7c, 1-(3-Methylbenzoyl)-5-nitro-1H-pyrrolo[2,3-b]pyridine-3-carbonitrile] showed an IC50 of 0.4 ± 0.11 µM. Further, the “fold less potent than the 5-chloro derivative 7b” value (ratio of HNE IC50 values) is “about 2 fold”.

With `Cc1cccc(C(=O)n2cc(C#N)c3cc(-c4ccccc4)cnc32)c1` [Compound 14a, 1-(3-Methylbenzoyl)-5-phenyl-1H-pyrrolo[2,3-b]pyridine-3-carbonitrile], 0.05 ± 0.02 µM corresponded to half-maximal inhibition (IC50).

For the compound `Cc1cccc(C(=O)n2cc(C#N)c3cc(-c4cccc(C(F)(F)F)c4)cnc32)c1` [Compound 14b, 1-(3-Methylbenzoyl)-5-(3-(trifluoromethyl)phenyl)-1H-pyrrolo[2,3-b]pyridine-3-carbonitrile], the IC50 worked out at 0.18 ± 0.07 µM.

In turn, `Cc1cccc(C(=O)n2cc(C#N)c3cc(-c4cccc(C)c4)cnc32)c1` [Compound 14c, 1-(3-Methylbenzoyl)-5-(m-tolyl)-1H-pyrrolo[2,3-b]pyridine-3-carbonitrile] gave an IC50 of 0.13 ± 0.04 µM.

Turning to `COc1cccc(-c2cnc3c(c2)c(C#N)cn3C(=O)c2cccc(C)c2)c1` [Compound 14d, 5-(3-Methoxyphenyl)-1-(3-methylbenzoyl)-1H-pyrrolo[2,3-b]pyridine-3-carbonitrile], the midpoint of inhibition, the IC50, lay at 0.07 ± 0.015 µM. This IC50 lies about 1.9-fold lower than the previous one.

`COc1ccc2cc(-c3cnc4c(c3)c(C#N)cn4C(=O)c3cccc(C)c3)ccc2c1` [Compound 14e, 5-(6-Methoxynaphthalen-2-yl)-1-(3-methylbenzoyl)-1H-pyrrolo[2,3-b]pyridine-3-carbonitrile] registered an IC50 of 1.6 ± 0.33 µM.

On to `Cc1cccc(C(=O)n2cc(C#N)c3cc(-c4ccsc4)cnc32)c1` [Compound 14f, 1-(3-methylbenzoyl)-5-(thiophen-3-yl)-1H-pyrrolo[2,3-b]pyridine-3-carbonitrile], for which it took 0.042 ± 0.015 µM to reach half-maximal inhibition (IC50).

Regarding `Cc1cccc(C(=O)n2cc(C#N)c3cc(-c4cccnc4)cnc32)c1` [Compound 14g, 1-(3-methylbenzoyl)-5-(pyridin-3-yl)-1H-pyrrolo[2,3-b]pyridine-3-carbonitrile], the IC50 was determined as 0.015 ± 0.004 µM.
